# In paper PMC10673369, “Preliminary SAR of Novel Pleuromutilin–Polyamine Conjugates” (Microorganisms, 2023):
# Where “and” joins values, the source holds several entries; their conditions need not be identical. Identical values can stand only once.
# Experiments:
# [1] = test system: Escherichia coli; design: method as in PMID 16589015, PMID 22070694, PMID 22191527; conditions: cited from earlier work
# [2] = test system: Staphylococcus aureus; design: method as in PMID 16589015, PMID 22070694, PMID 22191527; conditions: cited from earlier work
# [3] = test system: E. coli ATCC 25922; assay: MIC, broth dilution, E. coli; format: cell-based, Escherichia coli; conditions: Escherichia coli, ATCC25922, mean (n = 3)
# Method: (§1) The susceptibility of bacterial strains S. aureus (ATCC 25923), E. coli (ATCC 25922), and P. aeruginosa (ATCC 27853 or PAO1) to antibiotics and compounds was determined using reported protocols. Additional antimicrobial evaluation against MRSA (ATCC 43300), Klebsiella pneumoniae (ATCC 700603), A. baumannii (ATCC 19606), Candida albicans (ATCC 90028), and Cryptococcus neoformans (ATCC 208821) was undertaken at the Community for Open Antimicrobial Drug Discovery at The University of Queensland (Australia) according to their standard protocols as reported previously. […]
# (§2) 2.3. Antimicrobial Assays
# (§3) The susceptibility of bacterial strains S. aureus (ATCC 25923), E. coli (ATCC 25922), and P. aeruginosa (ATCC 27853 or PAO1) to antibiotics and compounds was determined in microplates using the standard broth dilution method in accordance with the recommendations of the Comité de l’AntibioGramme de la Société Française de Microbiologie (CA-SFM). Briefly, the minimal inhibitory concentrations (MICs) were determined with an inoculum of 10^5 CFU in 200 µL of Mueller–Hinton broth (MHB) containing two-fold serial dilutions of each drug. The MIC was defined as the lowest […]
# (§4) determine all MICs, the measurements were independently repeated in triplicate. Additional antimicrobial evaluation against MRSA (ATCC 43300), Klebsiella pneumoniae (ATCC 700603), A. baumannii (ATCC 19606), Candida albicans (ATCC 90028), and Cryptococcus neoformans (ATCC 208821) was undertaken at the Community for Open Antimicrobial Drug Discovery at The University of Queensland (Australia) according to their standard protocols as reported previously. […]
# [4] = test system: Mycobacterium smegmatis; design: method as in PMID 16589015, PMID 22070694, PMID 22191527; conditions: cited from earlier work
# [5] = test system: S. aureus ATCC 25923; assay: MIC, broth dilution, S. aureus; format: cell-based; conditions: Staphylococcus aureus, ATCC25923, mean (n = 3)
# Method: as §1, §2, §3, §4
# (§5) For C. neoformans, resazurin was added at 0.006% final concentration to each well and incubated for a further 3 h before MICs were determined by measuring […]
# (§6) Colistin and vancomycin were used as positive bacterial inhibitor standards for Gram-negative and Gram-positive bacteria, respectively. Fluconazole was used as a positive fungal inhibitor standard for C. albicans and C. neoformans. The antibiotics were provided in […], with 3 above and 3 below its MIC value, and plated into the first 8 wells of column 23 of the 384-well NBS plates. The quality control (QC) of the assays was determined by the antimicrobial controls and the Z'-factor (using positive and negative controls). Each plate was deemed to fulfil the quality criteria (pass QC) if the Z'- […]
# (§7) inhibition at their highest concentration, and no growth inhibition at their lowest concentration.
# (§8) 2.4. Determination of the MICs of Antibiotics in the Presence of Synergizing Compounds
# [6] = test system: P. aeruginosa PAO1; assay: MIC, broth dilution, P. aeruginosa PAO1; format: cell-based; conditions: Pseudomonas aeruginosa, mean (n = 3)
# Method: as §1, §2, §3, §4, §5, §6, §7, §8
# [7] = test system: P. aeruginosa ATCC 27853; assay: MIC of antibiotic alone, P. aeruginosa ATCC 27853; format: cell-based
# Method: as §1, §2, §3, §5
# [8] = test system: C. albicans ATCC 90028; assay: MIC, CO-ADD antifungal assay, C. albicans; format: cell-based, Candida albicans; conditions: Candida albicans, ATCC90028, mean (n = 2)
# Method: as §1, §2
# (§9) The susceptibility of bacterial strains S. aureus (ATCC 25923), E. coli (ATCC 25922), and P. […]
# (§10) baumannii (ATCC 19606), Candida albicans (ATCC 90028), and Cryptococcus neoformans (ATCC 208821) was undertaken at the Community for Open Antimicrobial Drug Discovery at The University of Queensland (Australia) according to their standard protocols as reported previously. […]
# (§11) For the antifungal assay, fungi strains were cultured for 3 days on YPD agar at 30 °C. A yeast suspension of 1 × 106 to 5 × 10^6 CFU/mL was prepared from five colonies. These stock suspensions were diluted with yeast nitrogen base (YNB) (Becton Dickinson, 233520) broth to a final concentration of 2.5 × 10^3 CFU/mL. The compounds were serially diluted 2-fold across the wells of 96-well plates (Corning 3641, non-binding surface), with compound concentrations ranging from 0.015 to 64 µg/mL and final volumes of 50 µL, plated in duplicate. Then, 50 µL of the fungi suspension that was previously prepared in YNB broth to the final concentration of 2.5 × 10^3 CFU/mL was added to each well of the compound-containing plates, giving a final compound concentration range of 0.008 to 32 µg/mL. Plates were covered and incubated at 35 °C for 36 h without shaking. C. albicans MICs were determined by measuring the absorbance at OD530. For C. neoformans, resazurin was added at 0.006% final concentration to each well and incubated for a further 3 h before MICs were determined by measuring […]
# as §6, §7, §8
# [9] = test system: C. neoformans ATCC 208821; assay: MIC, CO-ADD antifungal assay, C. neoformans; format: cell-based, Cryptococcus neoformans; conditions: Cryptococcus neoformans, ATCC208821, mean (n = 2)
# Method: as §1, §2, §9, §10, §11, §6, §7, §8
# [10] = Cytotoxicity assay, HEK293; format: cell-based; conditions: human; HEK293 cells; mean (n = 2); read-out: Cytotoxicity (IC50), concentration of compound at 50% cytotoxicity
# Method: Cytotoxicity assays were conducted using reported protocols (see Supplementary File). […]
# HEK293 cells were counted manually in a Neubauer hemocytometer and plated at a density of 5,000 cells/well into each well of the 384-well plates containing the 25x (2 µL) concentrated compounds [26,27]. The medium used was Dulbecco's modified Eagle’s medium (DMEM), supplemented with 10% fetal bovine serum (FBS). Cells were incubated together with the compounds for 20 h at 37 °C, 5% CO2.
# (§12) To measure cytotoxicity, 5 µL (equals 100 µM final) of resazurin was added to each well after incubation and incubated for further 3 h at 37 °C with 5% CO2. After the final incubation, fluorescence intensity […]
# reader. CC50 values (concentration at 50% cytotoxicity) were calculated by normalizing the fluorescence readout, with 74 µg/mL tamoxifen as negative control (0%) and normal cell growth as positive control (100%). The concentration-dependent percentage cytotoxicity was fitted to a dose–response function (using Pipeline Pilot) and CC50 values were determined. […]
# [11] = test system: MRSA ATCC 43300; assay: MIC, CO-ADD broth microdilution, MRSA; format: cell-based, methicillin-resistant S. aureus; conditions: Staphylococcus aureus, read-out: MIC MRSA
# Method: as §1, §2, §9
# baumannii (ATCC 19606), Candida albicans (ATCC 90028), and Cryptococcus neoformans (ATCC 208821) was undertaken at the Community for Open Antimicrobial Drug Discovery at The University of Queensland (Australia) according to their standard protocols as reported previously. For antimicrobial assays, the tested strains were cultured in either Luria broth (LB) (In Vitro Technologies, USB75852), nutrient broth (NB) (Becton Dickson, 234000), or MHB at 37 °C overnight. A sample of culture was then diluted 40-fold in fresh MHB and incubated at 37 °C for 1.5−2 h. The compounds were serially diluted 2-fold across the wells of 96-well plates (Corning 3641, non-binding surface), with compound concentrations ranging from 0.015 to 64 µg/ mL, and plated in duplicate. The resultant mid-log phase cultures were diluted to the final concentration of 1 × 10^6 CFU/mL; then, 50 µL was added to each well of the compound-containing plates, giving a final compound concentration range of 0.008 to 32 µg/mL and a cell density of 5 × 10^5 CFU/mL. All plates were then covered and incubated at 37 °C for 18 h. Resazurin was added at 0.001% final concentration to each well and incubated for 2 h before MICs […]
# as §5, §6, §7, §8
# [12] = design: method as in PMID 22070694, PMID 31480231; conditions: phase I clinical trials; cited from earlier work
# [13] = test system: P. aeruginosa PAO1; assay: Nitrocefin hydrolysis assay (outer membrane permeabilization); format: cell-based; conditions: polymyxin B at 98.3 μM ([…])
# Method: Nitrocefin assays were conducted using reported protocols (see Supplementary File).
# We also examined the ability of 9e to act as membrane disruptor of the Gram-negative bacteria P. aeruginosa PAO1 (Figure 5), using a nitrocefin colorimetric assay. This assay makes use of a chromogenic cephalosporin derivative, which in the presence of an outer membrane disruptor gains entry to the periplasm, where upon the action of β-lactamases leads to substrate hydrolysis with a detectable color change from yellow to red.
# Briefly, restoring enhancer concentrations were determined with an inoculum of 5x10^5 CFU in 200 µL of MHB containing two-fold serial dilutions of each derivative in the presence of doxycycline at 4.5 […]
# The lowest concentration of the polyamine
# These measurements were independently repeated in triplicate.
# Outer membrane permeabilization was measured using nitrocefin as a chromogenic substrate of periplasmic β-lactamase. […] Nitrocefin hydrolysis was monitored spectrophotometrically by measuring the increase in absorbance at 490 nm. […]
# HEK293 cells were counted manually in a Neubauer hemocytometer and plated at a density of 5,000 cells/well into each well of the 384-well plates containing the 25x (2 µL) concentrated compounds [26,27]. […]
# as §12
# reader. […] The concentration-dependent percentage cytotoxicity was fitted to a dose–response function (using Pipeline Pilot) and CC50 values were determined.
# Human whole blood was washed three times with three volumes of 0.9% NaCl and then resuspended in the same solution to a concentration of 0.5 x 10^8 cells/mL, as determined by the manual cell count in a Neubauer hemocytometer. […] Hemolysis was determined by measuring the supernatant absorbance at […] (OD405). The absorbance was measured using a Tecan M1000 Pro monochromator plate reader. […]
compound,measurement,setting,value
"C=C[C@]1(C)C[C@@H](OC(=O)CO)[C@]2(C)[C@H](C)CC[C@]3(CCC(=O)[C@H]32)[C@@H](C)[C@@H]1O [Compound 1, pleuromutilin]",Antibacterial activity against Escherichia coli,[1],no effect
same,Antibacterial activity against Staphylococcus aureus,[2],bactericidal activity
same,MIC,[3],400 µM
same,Antibacterial activity against Mycobacterium smegmatis,[4],moderate activity
same,MIC,[5],3.12 µM
same,MIC,[6],800 µM
"O=C(N[C@H](CO)[C@H](O)c1ccc([N+](=O)[O-])cc1)C(Cl)Cl [chloramphenicol, reference compound]",MIC,[5],1.5 to 3 µM
C[C@H]1c2cccc(O)c2C(=O)C2=C(O)[C@]3(O)C(=O)C(C(N)=O)=C(O)[C@@H](N(C)C)[C@@H]3[C@@H](O)[C@@H]21 [doxycycline],MIC of antibiotic alone,[7],90 μM and 40 μg/mL
"OC(Cn1cncn1)(Cn1cncn1)c1ccc(F)cc1F [fluconazole, reference compound]",MIC,[8],0.4 µM
same,MIC,[9],26 µM
"[H]/N=C(/N)N[C@H]1[C@H](O)[C@@H](O)[C@H](O[C@@H]2O[C@@H](C)[C@](O)(C=O)[C@H]2O[C@@H]2O[C@@H](CO)[C@H](O)[C@@H](O)[C@@H]2NC)[C@@H](N/C(N)=N\[H])[C@@H]1O [streptomycin, reference compound]",MIC,[3],21.5 µM
same,MIC,[5],21.5 µM
same,MIC,[6],21.5 µM
"CC/C(=C(\c1ccccc1)c1ccc(OCCN(C)C)cc1)c1ccccc1 [tamoxifen, reference compound]",IC50 at 20 h,[10],24 µM
"CN[C@H](CC(C)C)C(=O)N[C@H]1C(=O)N[C@@H](CC(N)=O)C(=O)N[C@H]2C(=O)N[C@H]3C(=O)N[C@H](C(=O)N[C@H](C(=O)O)c4cc(O)cc(O)c4-c4cc3ccc4O)[C@H](O)c3ccc(c(Cl)c3)Oc3cc2cc(c3O[C@@H]2O[C@H](CO)[C@@H](O)[C@H](O)[C@H]2O[C@H]2C[C@](C)(N)[C@H](O)[C@H](C)O2)Oc2ccc(cc2Cl)[C@H]1O [vancomycin, reference compound]",MIC,[11],0.7 µM
azamulin [Compound 4],Bioavailability,[12],poor bioavailability
polymyxin B,Outer membrane perturbation (nitrocefin hydrolysis),[13],potent ability to perturb the outer membrane
